Assay [1] addresses T1, human mAChR M1 (Homo sapiens, UniProt P11229).
T1 sequence (P11229 1-460): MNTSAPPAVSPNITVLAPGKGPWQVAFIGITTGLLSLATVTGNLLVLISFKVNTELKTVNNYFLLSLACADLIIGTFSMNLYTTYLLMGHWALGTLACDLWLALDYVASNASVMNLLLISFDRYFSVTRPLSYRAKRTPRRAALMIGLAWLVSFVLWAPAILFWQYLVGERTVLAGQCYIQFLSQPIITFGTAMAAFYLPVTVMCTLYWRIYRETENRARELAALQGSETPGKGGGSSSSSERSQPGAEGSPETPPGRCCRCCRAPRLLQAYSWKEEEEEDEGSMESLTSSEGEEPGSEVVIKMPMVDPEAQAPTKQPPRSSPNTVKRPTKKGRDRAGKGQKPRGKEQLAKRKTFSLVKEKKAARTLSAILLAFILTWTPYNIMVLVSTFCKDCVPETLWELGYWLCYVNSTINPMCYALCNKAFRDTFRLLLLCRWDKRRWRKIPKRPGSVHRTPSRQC
The assay is described as follows: mAChR M1 cell-based functional assay (calcium mobilization), PAM activity: increase in the EC20 acetylcholine response. The conditions noted are these: CHO-K1 cells expressing hM1; calcium flux (Fluo-4); potentiation of EC20 acetylcholine response. The source says:
(§1) Chinese hamster ovary (CHO-K1) cells stably expressing rat (r)M1 were purchased from the American Type Culture Collection and cultured according to their indicated protocol. CHO cells stably expressing human (h)M2, hM3, and hM5 were described previously (Levey, et al., 1991); hM1 and hM4 cDNAs were purchased from Missouri S&T cDNA Resource; rM4 cDNA was provided by T. I. Bonner (National Institutes of Health, Bethesda, Md.). rM2 and rM3 were cloned from a rat brain cDNA library and sequence verified. hM1, rM2, rM3, hM4, and rM4 cDNAs were used to stably transfect CHO-K1 cells purchased from the American Type Culture Collection using Lipofectamine2000. To make stable rM2, hM2, rM3, hM4, and rM4 cell lines for use in calcium mobilization assays, these cells also were stably transfected with a chimeric G-protein (Gqi5) (provided by B. R. Conklin, University of California, San Francisco) using Lipofectamine 2000. rM1, hM1, rM3, hM3, rM5, and hM5 cells were grown in Ham's F-12 medium containing 10% heat-inactivated fetal bovine serum (FBS), 20 mM HEPES, and 50 μg/mL G418 sulfate. rM2-Gqi5, hM2-Gqi5, and hM4-Gqi5 cells were grown in the same medium also containing 500 μg/mL Hygromycin B. Stable rM4-Gqi5 cells were grown in DMEM containing 10% heat-inactivated FBS, 20 mM HEPES, 400 μg/mL G418 sulfate, and 500 μg/mL Hygromycin B.
(§2) For high throughput measurement of agonist-evoked increases in intracellular calcium, CHO-K1 cells stably expressing muscarinic receptors were plated in growth medium lacking G418 and hygromycin at 15,000 cells/20 μL/well in Greiner 384-well black-walled, tissue culture (TC)-treated, clear-bottom plates (VWR). Cells were incubated overnight at 37° C. and 5% CO2. The next day, cells were washed using an ELX 405 (BioTek) with four washes (80 μL) of assay buffer then aspirated to 20 μL. Next, 20 μL of 16 μM Fluo-4/acetoxymethyl ester (Invitrogen, Carlsbad, Calif.) prepared as a 2.3 mM stock in DMSO and mixed in a 1:1 ratio with 10% (w/v) Pluronic F-127 and diluted in assay buffer was added to the wells and the cell plates were incubated for 50 min at 37° C. and 5% CO2. Dye was removed by washing with the ELX 405 (four 80 μL washes of assay buffer) then aspirated to 20 μL. Compound master plates were formatted in an 11 point CRC format (1:3 dilutions) in 100% DMSO with a starting concentration of 10 mM using the BRAVO liquid handler (Agilent). Test compound CRCs were then transferred to daughter plates (240 nL) using the Echo acoustic plate reformatter (Labcyte, Sunnyvale, Calif.) and then diluted into assay buffer (40 μL) to a 2× stock using a Thermo Fisher Combi (Thermo Fisher Scientific, Waltham, Mass.).
(§3) Calcium flux was measured using the Functional Drug Screening System (FDSS) 6000 (Hamamatsu Corporation, Tokyo, Japan) as an increase in the fluorescent static ratio. Compounds were applied to cells (20 μL, 2×) using the automated system of the FDSS 6000 at 4 s into the 300 s protocol and the data were collected at 1 Hz. At 144 s into the 300 s protocol, 10 μL of an EC20 concentration of the muscarinic receptor agonist acetylcholine was added (5×), followed by the addition of 12 μL an EC80 concentration of acetylcholine at the 230 s time point (5×). Agonist activity was analyzed as a concentration-dependent increase in calcium mobilization upon compound addition. Emax values for agonist activity are expressed relative to the maximum for acetylcholine. Positive allosteric modulator activity was analyzed as a concentration-dependent increase in the EC20 acetylcholine response. Antagonist activity was analyzed as a concentration-dependent decrease in the EC80 acetylcholine response. Concentration-response curves were generated using a four-parameter logistical equation in XLfit curve fitting software (IDBS, Bridgewater, N.J.) for Excel (Microsoft, Redmond, Wash.) or Prism (GraphPad Software, Inc., San Diego, Calif.).
In general terms: Calcium flux is commonly read through the fluorescence of an indicator in the cells.

In assay [2] the target is T1, human mAChR M1. The experiment in a line: mAChR M1 cell-based functional assay (calcium mobilization), agonist activity upon compound addition alone. The conditions noted are these: CHO-K1 cells expressing hM1; for EC50: calcium mobilization upon compound addition, no acetylcholine; for Emax: compound alone, relative to the maximum for acetylcholine.
Source text: as §1, §2, §3

By EC50 is commonly meant the concentration giving half of the maximal effect. In general, Emax refers to the greatest response seen or fitted, relative to the assay's reference.

Regarding `Cc1c(Cc2ccc(-n3cccn3)cc2)cc(C(=O)NC2CC3(COC3)C2)nc1-c1ccn(C)n1` [Compound 58, 4-(4-(1H-pyrazol-1-yl)benzyl)-5-methyl-6-(1-methyl-1H-pyrazol-3-yl)-N-(2-oxaspiro[3.3]heptan-6-yl)picolinamide], the figures for the EC50 in assay [1] and in assay [2] were 6 µM and more than 10 µM, respectively. Further, the Emax in assay [1] is 83%; in assay [2] it was less than 5%.

Consider `Cc1c(Cc2ccc(-c3cnn(C)c3)nc2)cc(C(=O)N[C@H]2CCCC[C@@H]2O)nc1-n1cccn1` [Compound 47, N-((1S,2S)-2-hydroxycyclohexyl)-5-methyl-4-((6-(1-methyl-1H-pyrazol-4-yl)pyridin-3-yl)methyl)-6-(1H-pyrazol-1-yl)picolinamide], for which the figures for the EC50 in assay [1] and in assay [2] were 0.675 µM and 9.08 µM, respectively. Also, the maximum response (Emax) in assay [1] was determined as 85%; in assay [2] it was 29%.

On to `Cc1ccc(Cc2cc(C(=O)N[C@H]3CCOC[C@@H]3O)nc(-c3ccn(C)n3)c2C)cn1` [Compound 65, N-((3R,4S)-3-hydroxytetrahydro-2H-pyran-4-yl)-5-methyl-6-(1-methyl-1H-pyrazol-3-yl)-4-((6-methylpyridin-3-yl)methyl)picolinamide], for which the Emax in assay [1] worked out at 71%. Further, in assay [2], the EC50 is more than 10 µM and the Emax is less than 5%.

Take `Cn1ccc(-c2ccc(Cc3cc(C(=O)NC4CCOCC4)nc(-c4ccn(C)n4)c3)cc2)n1` [Compound 35, 6-(1-methyl-1H-pyrazol-3-yl)-4-(4-(1-methyl-1H-pyrazol-3-yl)benzyl)-N-(tetrahydro-2H-pyran-4-yl)picolinamide]: the Emax in assay [1] was determined as 46%. In addition, in assay [2], the EC50 is more than 10 µM and the Emax is less than 5%.

For the compound `Cc1ccc(Cc2cc(C(=O)N[C@H]3CCCC[C@@H]3O)nc(-c3ccn(C)n3)c2C)cn1` [Compound 66, N-((1S,2S)-2-hydroxycyclohexyl)-5-methyl-6-(1-methyl-1H-pyrazol-3-yl)-4-((6-methylpyridin-3-yl)methyl)picolinamide], the Emax in assay [1] was 66%. In assay [2], the EC50 is more than 10 µM and the Emax was less than 5%.

Consider `Cc1c(Cc2ccc(-n3cccn3)cc2)cc(C(=O)N[C@H]2CCC[C@@H]2O)nc1-c1ccn(C)n1` [Compound 59, 4-(4-(1H-pyrazol-1-yl)benzyl)-N-((1S,2S)-2-hydroxycyclopentyl)-5-methyl-6-(1-methyl-1H-pyrazol-3-yl)picolinamide], for which, in assay [1], the EC50 amounted to 1.98 µM and the Emax stood at 85%. In assay [2], the half-maximal effective concentration (EC50) was more than 10 µM and the Emax is less than 5%.

With `Cn1cc(-c2ccc(Cc3cc(C(=O)NC4CC5(COC5)C4)nc(-n4cccn4)c3)cn2)cn1` [Compound 21, 4-((6-(1-methyl-1H-pyrazol-4-yl)pyridin-3-yl)methyl)-6-(1H-pyrazol-1-yl)-N-(2-oxaspiro[3.3]heptan-6-yl)picolinamide], the Emax is 40% in assay [1] and less than 5% in assay [2]. Also, the EC50 in assay [2] is more than 10 µM.

For the compound `Cn1cc(-c2ccc(Cc3cc(C(=O)NC[C@@H]4CCCO4)nc(-c4ccn(C)n4)c3)cn2)cn1` [Compound 7, (S)-6-(1-methyl-1H-pyrazol-3-yl)-4-((6-(1-methyl-1H-pyrazol-4-yl)pyridin-3-yl)methyl)-N-((tetrahydrofuran-2-yl)methyl)picolinamide], the Emax in assay [1] came to 38%. In addition, in assay [2], the EC50 was more than 10 µM and the Emax was less than 5%.

With `Cc1nc(-c2ccc(Cc3cc(C(=O)NC4CC5(COC5)C4)nc(-n4cccn4)c3)cc2)co1` [Compound 23, 4-(4-(2-methyloxazol-4-yl)benzyl)-6-(1H-pyrazol-1-yl)-N-(2-oxaspiro[3.3]heptan-6-yl)picolinamide], the results for the concentration for a half-maximal effect (EC50) in assay [1] and in assay [2] were 6.25 µM and more than 10 µM, respectively. Further, the results for the Emax in assay [1] and in assay [2] were 69% and less than 5%, respectively.

As to `Cc1c(Cc2ccc(-c3ccn(C)n3)nc2)cc(C(=O)N[C@H]2CCCC[C@@H]2O)nc1-n1cccn1` [Compound 46, N-((1S,2S)-2-hydroxycyclohexyl)-5-methyl-4-((6-(1-methyl-1H-pyrazol-3-yl)pyridin-3-yl)methyl)-6-(1H-pyrazol-1-yl)picolinamide], in assay [1], the EC50 was determined as 0.881 µM and the Emax was determined as 85%. In assay [2], the EC50 is not below 10 µM and the Emax was 28%.

`Cn1cc(-c2ccc(Cc3cc(C(=O)NC4CCOCC4)nc(-c4ccn(C)n4)c3)cn2)cn1` [Compound 4, 6-(1-methyl-1H-pyrazol-3-yl)-4-((6-(1-methyl-1H-pyrazol-4-yl)pyridin-3-yl)methyl)-N-(tetrahydro-2H-pyran-4-yl)picolinamide]: the values for the Emax in assay [1] and in assay [2] were 53% and less than 5%, respectively. The EC50 in assay [2] is more than 10 µM.

On to `Cc1nc(-c2ccc(Cc3cc(C(=O)N[C@H]4CCC[C@@H]4O)nc(-n4cccn4)c3)cc2)co1` [Compound 24, N-((1S,2S)-2-hydroxycyclopentyl)-4-(4-(2-methyloxazol-4-yl)benzyl)-6-(1H-pyrazol-1-yl)picolinamide], for which, in assay [1], the EC50 came out at 4.91 µM and the Emax is 78%. Further, in assay [2], the EC50 is more than 10 µM and the Emax is less than 5%.

Regarding `Cc1c(Cc2ccc(-c3ccn(C)n3)cc2)cc(C(=O)NCC2CCOCC2)nc1-c1ccn(C)n1` [Compound 14, 5-methyl-6-(1-methyl-1H-pyrazol-3-yl)-4-(4-(1-methyl-1H-pyrazol-3-yl)benzyl)-N-((tetrahydro-2H-pyran-4-yl)methyl)picolinamide], the Emax in assay [1] was 74%; in assay [2] it was less than 5%. For the same compound, the EC50 in assay [2] is more than 10 µM.

`Cc1c(Cc2ccc(-c3cnn(C)c3)nc2)cc(C(=O)NC2CCOCC2)nc1-n1cccn1` [Compound 50, 5-methyl-4-((6-(1-methyl-1H-pyrazol-4-yl)pyridin-3-yl)methyl)-6-(1H-pyrazol-1-yl)-N-(tetrahydro-2H-pyran-4-yl)picolinamide]: the maximum response (Emax) in assay [1] came to 65%. In assay [2], the EC50 was more than 10 µM and the Emax was less than 5%.

Consider `Cn1cc(-c2ccc(Cc3cc(C(=O)N[C@H]4CCOC[C@@H]4O)nc(-n4cccn4)c3)cn2)cn1` [Compound 18, N-((3R,4S)-3-hydroxytetrahydro-2H-pyran-4-yl)-4-((6-(1-methyl-1H-pyrazol-4-yl)pyridin-3-yl)methyl)-6-(1H-pyrazol-1-yl)picolinamide], for which, in assay [1], the EC50 came to 1.02 µM and the Emax was 85%. In assay [2], the EC50 was not below 10 µM and the Emax was found to be 13%.
